According to PMC10365998, “An ATP-sensitive phosphoketolase regulates carbon fixation in cyanobacteria” (Nature Metabolism, 2023):
One block for each molecule: values may come before it.

Key:
SeXPK [1] = biological target: T1, SeXPK (Synechococcus elongatus, UniProt Q31LF9); test: cryo-EM structure; type: binding; settings: 2 mM AMPPNP; allosteric site at dimer interface, two per dimer, no Mg2+ bound; TPP/Mg2+ present
T1 construct: gene Synpcc7942_2080; N-terminal 6His tag, pDC vector, E. coli; dodecamer of six dimers; purified with TPP/Mg2+
T1 sequence (Q31LF9 1-796): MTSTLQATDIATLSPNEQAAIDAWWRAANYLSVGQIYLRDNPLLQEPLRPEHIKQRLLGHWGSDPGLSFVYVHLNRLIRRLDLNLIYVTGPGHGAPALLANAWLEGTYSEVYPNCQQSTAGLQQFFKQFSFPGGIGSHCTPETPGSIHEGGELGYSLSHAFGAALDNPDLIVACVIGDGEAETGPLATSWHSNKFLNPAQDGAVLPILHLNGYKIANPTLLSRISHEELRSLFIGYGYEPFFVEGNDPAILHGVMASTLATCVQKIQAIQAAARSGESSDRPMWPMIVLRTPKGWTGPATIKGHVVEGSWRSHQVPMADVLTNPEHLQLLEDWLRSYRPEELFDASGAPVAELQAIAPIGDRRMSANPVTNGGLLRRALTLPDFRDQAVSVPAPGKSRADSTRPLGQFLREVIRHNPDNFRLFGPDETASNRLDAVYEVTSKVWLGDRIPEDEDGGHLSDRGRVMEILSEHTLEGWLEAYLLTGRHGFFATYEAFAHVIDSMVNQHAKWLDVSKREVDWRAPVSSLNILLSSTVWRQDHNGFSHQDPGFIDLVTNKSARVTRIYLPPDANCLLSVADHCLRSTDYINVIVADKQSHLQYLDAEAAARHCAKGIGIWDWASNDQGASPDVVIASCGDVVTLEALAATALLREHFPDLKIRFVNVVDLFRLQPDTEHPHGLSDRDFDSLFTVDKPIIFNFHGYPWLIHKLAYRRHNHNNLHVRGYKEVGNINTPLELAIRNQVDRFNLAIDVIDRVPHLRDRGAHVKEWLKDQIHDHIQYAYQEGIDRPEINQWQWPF

[2] = biological target: T2, Methylomonas sp. XPK (MeXPK) (Methylomonas sp. DH-1, UniProt A0A172UD65); test: acetyl phosphate formation, hydroxamate colorimetric assay; type: biochemical; settings: F6P varied, 30 mM phosphate, pH 6.4, 1 mM TPP, 1 mM MgCl2; allosteric
T2 construct: same plasmid as SeXPK (N-terminal 6His tag), expressed in E. coli and purified
T2 sequence (A0A172UD65 1-788): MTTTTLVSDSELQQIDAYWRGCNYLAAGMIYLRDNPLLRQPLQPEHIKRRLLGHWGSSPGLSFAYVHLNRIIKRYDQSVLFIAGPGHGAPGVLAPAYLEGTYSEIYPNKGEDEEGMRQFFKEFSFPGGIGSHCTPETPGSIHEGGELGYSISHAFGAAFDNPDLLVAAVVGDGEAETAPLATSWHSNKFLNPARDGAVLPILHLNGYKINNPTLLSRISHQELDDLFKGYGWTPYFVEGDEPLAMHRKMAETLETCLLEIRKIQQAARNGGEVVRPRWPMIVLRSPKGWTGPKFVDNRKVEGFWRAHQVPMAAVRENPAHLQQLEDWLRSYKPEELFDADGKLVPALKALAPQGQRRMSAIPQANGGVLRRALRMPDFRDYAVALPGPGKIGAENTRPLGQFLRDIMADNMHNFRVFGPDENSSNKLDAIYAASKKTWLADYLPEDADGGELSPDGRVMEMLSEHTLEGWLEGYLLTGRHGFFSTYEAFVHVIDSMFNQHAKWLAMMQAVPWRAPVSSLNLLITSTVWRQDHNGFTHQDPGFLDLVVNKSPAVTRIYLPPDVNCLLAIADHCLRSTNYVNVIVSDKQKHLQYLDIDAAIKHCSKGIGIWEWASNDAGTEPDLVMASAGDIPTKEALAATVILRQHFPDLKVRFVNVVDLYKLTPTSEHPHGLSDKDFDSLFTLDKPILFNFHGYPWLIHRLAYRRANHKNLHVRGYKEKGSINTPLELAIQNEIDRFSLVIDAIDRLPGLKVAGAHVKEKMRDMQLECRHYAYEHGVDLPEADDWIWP
Description: acetyl phosphate formation, hydroxamate colorimetric assay on Methylomonas sp.

SeXPK [3] = biological target: T1, SeXPK; test: as above; type: biochemical; settings: F6P varied, 30 mM phosphate, pH 6.4, 1 mM TPP, 1 mM MgCl2; allosteric
SeXPK [4] = biological target: T3, SeXPK (Synechococcus elongatus, UniProt Q31LF9, H706R); test: as above; type: biochemical; settings: 30 mM phosphate, pH 6.4, 1 mM TPP, 1 mM MgCl2; no ATP
T3 construct: gene Synpcc7942_2080; N-terminal 6His tag, pDC vector, E. coli; dodecamer of six dimers; purified with TPP/Mg2+
T3 sequence (Q31LF9 whole entry H706R): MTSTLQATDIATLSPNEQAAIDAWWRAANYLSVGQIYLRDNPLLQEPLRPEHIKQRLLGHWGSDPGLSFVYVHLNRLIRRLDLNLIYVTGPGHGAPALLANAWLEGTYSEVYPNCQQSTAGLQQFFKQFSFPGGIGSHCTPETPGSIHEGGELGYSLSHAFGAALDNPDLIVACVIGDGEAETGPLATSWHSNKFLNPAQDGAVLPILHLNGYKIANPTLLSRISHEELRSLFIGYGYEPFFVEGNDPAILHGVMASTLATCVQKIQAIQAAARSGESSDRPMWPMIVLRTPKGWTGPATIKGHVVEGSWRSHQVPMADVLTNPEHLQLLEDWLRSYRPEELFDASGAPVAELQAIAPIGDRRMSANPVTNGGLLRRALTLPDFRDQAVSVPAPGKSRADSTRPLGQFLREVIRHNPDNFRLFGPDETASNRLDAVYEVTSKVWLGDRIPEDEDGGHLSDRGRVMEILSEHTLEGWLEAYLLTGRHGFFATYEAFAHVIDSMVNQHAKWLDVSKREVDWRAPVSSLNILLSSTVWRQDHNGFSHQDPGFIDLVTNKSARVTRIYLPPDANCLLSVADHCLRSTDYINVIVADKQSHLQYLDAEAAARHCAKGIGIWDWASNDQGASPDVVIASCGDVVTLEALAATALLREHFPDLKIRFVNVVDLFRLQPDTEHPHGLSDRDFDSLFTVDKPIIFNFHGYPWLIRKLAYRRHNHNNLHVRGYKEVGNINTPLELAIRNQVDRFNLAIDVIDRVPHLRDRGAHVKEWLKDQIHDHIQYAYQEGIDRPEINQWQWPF

SeXPK [5] = biological target: T4, SeXPK (Synechococcus elongatus, UniProt Q31LF9, H706A); test: as above; type: biochemical; settings: 30 mM phosphate, pH 6.4, 1 mM TPP, 1 mM MgCl2; no ATP; most activity lost
T4 construct: gene Synpcc7942_2080; N-terminal 6His tag, pDC vector, E. coli; dodecamer of six dimers; purified with TPP/Mg2+
T4 sequence (Q31LF9 whole entry H706A): as the sequence (Q31LF9 whole entry H706R) above, with R706A counted along it

[6] = biological target: T2, Methylomonas sp. XPK (MeXPK); test: as above; type: biochemical; settings: 30 mM phosphate, pH 6.4, 1 mM TPP, 1 mM MgCl2; no ATP
Description: acetyl phosphate formation, hydroxamate colorimetric assay on Methylomonas sp. XPK (MeXPK) | Methylomonas sp.

SeXPK [7] = biological target: T5, SeXPK (Synechococcus elongatus, UniProt Q31LF9, Y710A); test: as above; type: biochemical; settings: 30 mM phosphate, pH 6.4, 1 mM TPP, 1 mM MgCl2; no ATP
T5 construct: gene Synpcc7942_2080; N-terminal 6His tag, pDC vector, E. coli; dodecamer of six dimers; purified with TPP/Mg2+
T5 sequence (Q31LF9 whole entry Y710A): as the sequence (Q31LF9 whole entry H706R) above, with R706H, Y710A counted along it

[8] = biological target: Bifidobacterium longum phosphoketolase (B. longum XPK) (B. longum); test: cryo-EM structure; purified B. longum XPK with TPP/Mg2+, free form; D4 symmetry, focused refinement of one dimer
[9] = biological target: the molecule itself; test: cryo-EM structure; purified SeXPK ~0.4 mg/ml (2.2 µM of dimer) in 20 mM HEPES-NaOH pH 7.2, 0.1 M NaCl, 0.2 mM TPP, 1 mM MgCl2; free and with 2 mM AMPPNP; D6 symmetry, focused refinement of one dimer

Molecule: Nc1ncnc2c1ncn2[C@@H]1O[C@H](COP(=O)(O)OP(=O)(O)NP(=O)(O)O)[C@@H](O)[C@H]1O [AMPPNP, phosphoaminophosphonic acid adenylate ester]
cryo-EM structure (SeXPK [1]): the two subunits jointly bind two AMPPNP

Molecule: Nc1ncnc2c1ncn2[C@@H]1O[C@H](COP(=O)(O)OP(=O)(O)OP(=O)(O)O)[C@@H](O)[C@H]1O [ATP, adenosine-5′-triphosphate]
inhibition [2]: its allosteric inhibition by ATP was validated based on steady-state kinetics
inhibition at 0.5, 1 or 2 mM (SeXPK [3]): SeXPK is inhibited in vitro by ATP through an allosteric mode

acetyl phosphate formation, hydroxamate colorimetric assay (SeXPK [5]): H706A mutant of SeXPK lost most activity
acetyl phosphate formation, hydroxamate colorimetric assay (SeXPK [7]): Y710A mutant of SeXPK lost most activity
Molecule: O=P(O)(O)OC[C@H]1OC(O)(CO)[C@@H](O)[C@@H]1O (stereo partly drawn) [F6P]
ATP sensitivity of activity (SeXPK [4]): H706R mutant of SeXPK shows only minor effect by ATP
Km [6]: Methylomonas sp. XPK (MeXPK) is also inhibited by ATP

stoichiometry N [8]: 8
Molecule: Bifidobacterium longum phosphoketolase (B. longum XPK) (enzyme)

B1: Synechococcus elongatus PCC7942 phosphoketolase (SeXPK) (enzyme)
chain: T1 sequence (Q31LF9 1-796)
notes: phosphoketolase (XPK) of Synechococcus elongatus PCC7942, locus Synpcc7942_2080; Carries the coenzyme TPP/Mg2+; studied free and with 2 mM AMPPNP; Dodecamer of six dimers by cryo-EM; also called S. elongatus PCC7942 XPK; Synpcc7942_2080; source: E. coli DH5αDE3.1, purified (His-Tag resin, Q Sepharose, Superdex 200); copies: 12
stoichiometry N [9]: 12
